Measurements taken from patent publication US20070065485A1, “Therapeutic delivery of carbon monoxide” (priority 2003, published 2007).
Where two headings read alike, the source gives them in different places.

Key:
[1] = tested on: aortic rings pre-contracted with phenylephrine; test: Isolated aortic ring preparation: vessel relaxation in rings pre-contracted with phenylephrine (3 μM); type: cell-based, male Lewis rats; details: for percentage of relaxation compared to control: after 10 min
Experimental: Transverse ring sections of thoracic aorta were isolated from male Lewis rats and suspended under a 2 g tension in an organ bath containing oxygenated Krebs-Henseleit buffer at 37° C. in a manner previously described^10. The relaxation response to CORM-A1 (40, 80 and 160 μM) was assessed in aortic rings pre-contracted with phenylephrine (3 μM). […] Experiments were also conducted by comparing the effect of CORM-A1 and CORM-3 on vessel relaxation over time.

[2] = tested on: deoxymyoglobin (Mb); details: cited from earlier work
[3] = tested on: mean arterial pressure (MAP); test: Effect of CORM-A1 and YC-1 on mean arterial pressure (MAP) in anaesthetised rats; type: in vivo, Lewis rats
Experimental: Lewis rats (280-350 g) were anaesthetised by intramuscular injection of 1 ml/kg Hypnorm. Specially designed femoral artery and venous catheters were then surgically implanted and mean arterial pressure (MAP) monitored continuously using a polygraph recorder in a manner previously described. The effect of CORM-A1 on mean arterial pressure (MAP) over time was assessed following an intravenous (i.v.) injection of 50 μmol kg^−1. Similar experiments were conducted by administering YC-1 (1.2 μmol kg^−1, i.v.) to animals 5 min prior to the bolus addition of CORM-A1. Control experiments using YC-1 alone were also performed.
Femoral artery and venous catheters were surgically implanted into anesthetized Lewis rats and blood pressure continuously monitored as previously described by us. The effect of CORM-A1 and YC-1 on mean arterial pressure (MAP) in vivo is represented in FIG. 11. The compounds were injected intravenously as a bolus at a final concentration of 50 μmoles/kg for CORM-A1 and 1.2 μmol kg^−1 for YC-1. When the two compounds were given in combination, YC-1 was administered 10 min prior to CORM-A1 injection. As shown, CORM-A1 produced a gradual and sustained decrease in MAP over time; for instance, 60 min after CORM-A1 injection MAP decreased by 6.3±1.5 mmHg from the initial baseline value. Injection with YC-1 alone also produced an effect on blood pressure; however, the decrease in MAP was only transient, reaching a maximum of 5.5±1.0 mmHg after 10 min and returning to basal levels 50 min after injection. […] The data are represented as the mean±s.e.m. of 5 independent experiments for each group. *P<0.05 vs. baseline (−10 min); ^⇑P<0.05 vs. CORM-A1 alone or YC-1 alone.

[4] = tested on: aortic rings pre-contracted with phenylephrine; test: Isolated aortic ring preparation: relaxation response to CORM-A1 in presence or absence of YC-1, phenylephrine 1 μmol/L; type: cell-based, male Lewis rats
Experimental: Transverse ring sections of thoracic aorta were isolated from male Lewis rats and suspended under a 2 g tension in an organ bath containing oxygenated Krebs-Henseleit buffer at 37° C. in a manner previously described. […] YC-1 was added to the isolated rings 30 min prior to contraction with phenylephrine.

[5] = tested on: deoxymyoglobin (Mb); test: Detection of CO release: conversion of deoxymyoglobin (Mb) to carbonmonoxy myoglobin (MbCO); type: physicochemical
Experimental: The release of CO from CORM-A1 was assessed spectrophotometrically by measuring the conversion of deoxymyoglobin (Mb) to carbonmonoxy myoglobin (MbCO) by a method previously described^23. The amount of MbCO formed was quantified by measuring the absorbance at 540 nm (extinction coefficient=[…]) over time at 37° C. Myoglobin solutions (approximately 50 μmol/L final concentration) were prepared fresh by dissolving the protein in 0.04 M phosphate buffer (pH=7.4). Sodium dithionite (0.1%) was added to convert the oxidized myoglobin to its reduced form prior to each reading. Some experiments were also conducted using Mb at pH=5.5 or at room temperature (RT) in order to examine the kinetic of CO release from CORM-A1 under different chemical and physical conditions.
The amount of MbCO formed after addition of CORM-A1 to the Mb solution can be quantified by measuring the absorbance at 540 nm knowing the extinction coefficient for MbCO (ε=[…]). CORM-A1 at three different concentrations was added to a solution containing Mb at room temperature and the formed MbCO was calculated over time.

[6] = distilled water at basic pH; cited from earlier work

Compound: NCC(=O)O.[CH+]=O.[CH+]=O.[CH+]=O.[Cl][Ru] [CORM-3, Tricarbonylchloro(glycinato)ruthenium(II)]
- time after addition at which the stated relaxation was reached ([1]; 80 μM): 4 to 5 min
- relaxation ([1]; 80 μM, within 4-5 min): 75%
- time in which CO is liberated to Mb ([2]; added to a solution containing myoglobin (Mb), 1 mole CO per mole compound): 1 to 2 min
- CO liberated per mole of compound ([2]; added to a solution containing myoglobin (Mb), within 1-2 min): 1 mole of CO per mole of compound
- time of liberation of CO to Mb or in biological systems ([2]; from recent works): approximately 5 min

Compound: [BH3-]C(=O)[O-].[Na+].[Na+] [CORM-A1, Disodium boranocarbonate]
- decrease in MAP from initial baseline ([3]; 50 μmoles/kg i.v. bolus, 60 min after injection): 6.3±1.5 mmHg
- decrease in MAP ([3]; CORM-A1 50 μmoles/kg i.v. in combination with YC-1 1.2 μmol kg^−1 given 10 min prior, after 10 min): 16.1±5.6 mmHg
- relaxation ([4]; 1 μM CORM-A1, vessels pre-treated with YC-1): 35±9.8%
- relaxation ([4]; 10 μM CORM-A1, vessels pre-treated with YC-1): 51±3.3%
- relaxation ([4]; 20 μM after pre-treatment of vessels with YC-1 (1 μM)): 61±6.2%
- relaxation ([4]; 20 μM alone, after 20 min): 13±4.9%
- percentage of relaxation compared to control ([1]; 40 μM): 21.0±2.3%
- time after addition at which the stated relaxation was reached ([1]; 80 μM): 33 min
- vasorelaxation (in words) ([1]; 80 μM): gradual and profound vasorelaxation
- maximal vasorelaxation ([1]; 80 μM, 33 min following addition): 96%
- percentage of relaxation compared to control ([1]; 80 μM): 40.2±3.4%
- percentage of relaxation compared to control ([1]; 160 μM): 74.9±1.8%
- calculated Ymax of MbCO formed ([5]; 15.6 μM CORM-A1, room temperature): 16.7±1.2
- calculated Ymax of MbCO formed ([5]; 31.1 μM CORM-A1, room temperature): 33.1±1.4
- calculated Ymax of MbCO formed ([5]; 46.7 μM CORM-A1, room temperature): 48.2±2.5
- conversion of Mb to MbCO ([5]; 60 μM, pH=7.4, 37° C., MbCO spectrum after 210 min incubation): gradual formation of MbCO over time
- CO liberated per mole of compound ([5]; aqueous solution, room temperature, reaction to completion): one mole of CO per mole of compound
- release of CO at physiological pH ([5]; physiological pH): 18.4 min
- stability in water [6]: relatively stable

Compound: [BH4-].[Na+] [NaBH4, Sodium borohydride, reference compound]
- vasorelaxation (in words) ([1]; 80 μM): totally ineffective

Compound: OCc1ccc(-c2nn(Cc3ccccc3)c3ccccc23)o1 [YC-1, 3-(5′-hydroxymethyl-2′-furyl)-1-benzyl-indazole, reference compound]
- maximum decrease in MAP ([3]; YC-1 alone 1.2 μmol kg^−1 i.v., after 10 min): 5.5±1.0 mmHg
- time to return of MAP to basal levels ([3]; YC-1 alone 1.2 μmol kg^−1 i.v., after injection): 50 min
- relaxation ([4]; YC-1 alone (1 μM), after 20 min): 2.8±1.1%
